# Assays:
# [1] = system: DU145 prostate cancer cells; assay: cell viability screen with a 167-compound tyrosine kinase inhibitor library; format: cell-based, human
# Procedure: FIG. 1: ESK981 inhibits the growth of diverse preclinical models of prostate cancer and is associated with a unique vacuolization morphology. • (a) The percentage viabilities of DU145 cells treated with 300 nM ESK981 or 167 other tyrosine kinase inhibitors when compared to a vehicle control. The top five most inhibitory compounds, as well as cabozantinib and crizotinib (highlighted in orange), and their respective targets are listed in the table. ESK981 is highlighted in red. • (b) Morphological differences of nuclear-restricted RFP-expressing DU145 cells treated with 300 nM ESK981, crizotinib, or cabozantinib. • (c) A long-term survival assay was used to calculate the half-maximum inhibitory concentration (IC50) after two weeks of incubation with the serial dilutions of indicated drugs. (Top) Long-term survival assays of VCaP prostate cancer cells exposed to MTKIs. (Bottom) IC50 of ESK981, crizotinib, and cabozantinib in a panel of prostate cancer cell lines. • (d) ESK981 was effective against enzalutamide (Enza)-resistant cell lines. […] Long-term survival (two weeks) was assayed by absorbance of crystal violet at OD590. • (e) VCaP-RFP cells were cultured for three days in ultralow attachment plates to form 3D tumor spheroids prior to the indicated drug treatments. […] Fluorescence intensity of 3D spheroids was measured by IncuCyte ZOOM. • (f) Castration-resistant VCaP tumors were established subcutaneously in castrated SCID mice, and mice were randomized into three groups, which received vehicle, 30 mg/kg, or 60 mg/kg ESK981 by oral gavage once per day for the indicated dosing schedule. Tumor volumes were monitored by a digital caliper twice per week. Data were analyzed by unpaired t test and presented as mean±SEM. *p<0.05; **p<0.01. • (g) AR^+ prostate patient-derived xenograft (PDX) MDA-PCa-146-12 were implanted subcutaneously in non-castrated SCID mice, and mice were randomized into two groups receiving either once daily vehicle or 30 mg/kg ESK981 for five days each week. […] Tumor volumes were monitored twice per week. […]
# DU145 tumors = assay: DU145 xenograft tumor model; format: in vivo, mouse; conditions: 30 mg/kg
# Procedure: Four- to six-week old male CB17 severe combined immunodeficiency (SCID) mice were procured from the University of Michigan breeding colony. Subcutaneous tumors were established at both sides of the dorsal flank of mice. Tumors were measured at least biweekly using digital calipers following the formula (π/6) (L×W2), where L=length and W=width of the tumor. At the end of the studies, mice were sacrificed and tumors extracted and weighed. The University of Michigan University Committee on the Use and Care of Animals (UCUCA) approved all in vivo studies. For the VCaP castration-resistant tumor model, 3×10^6 VCaP cells were injected subcutaneously into the dorsal flank on both sides of the mice in serum-free medium with 50% Matrigel (BD Biosciences). Once tumors reached a palpable stage (˜200 mm^3), tumor-bearing mice were castrated. Once tumors grew back to the pre-castration size, mice were randomized and treated with either 30 mg/kg, 60 mg/kg ESK981, or vehicle (ORA-PLUS) by oral gavage 5 days per week. For the DU145 xenograft tumor model, 1×10^6 DU145 cells were injected subcutaneously into the dorsal flank on both sides of the mice in serum-free medium with 50% Matrigel. When tumors reached ˜100 mm^3, tumor-bearing mice were randomized and treated with 30 mg/kg ESK981 or vehicle (ORA-PLUS) by oral gavage 5 days per week.
# [2] = system: enzalutamide-resistant LNCaP-AR and CWR-R1 cells; assay: long-term survival assay in enzalutamide-resistant cell lines; format: cell-based, human; conditions: LNCaP-AR and CWR-R1, long-term survival two weeks
# Procedure: FIG. 1: ESK981 inhibits the growth of diverse preclinical models of prostate cancer and is associated with a unique vacuolization morphology. • (a) The percentage viabilities of DU145 cells treated with 300 nM ESK981 or 167 other tyrosine kinase inhibitors when compared to a vehicle control. The top five most inhibitory compounds, as well as cabozantinib and crizotinib (highlighted in orange), and their respective targets are listed in the table. […] Long-term survival (two weeks) was assayed by absorbance of crystal violet at OD590. • (e) VCaP-RFP cells were cultured for three days in ultralow attachment plates to form 3D tumor spheroids prior to the indicated drug treatments. […] Fluorescence intensity of 3D spheroids was measured by IncuCyte ZOOM. • (f) Castration-resistant VCaP tumors were established subcutaneously in castrated SCID mice, and mice were randomized into three groups, which received vehicle, 30 mg/kg, or 60 mg/kg ESK981 by oral gavage once per day for the indicated dosing schedule. Tumor volumes were monitored by a digital caliper twice per week. Data were analyzed by unpaired t test and presented as mean±SEM. *p<0.05; **p<0.01. • (g) AR^+ prostate patient-derived xenograft (PDX) MDA-PCa-146-12 were implanted subcutaneously in non-castrated SCID mice, and mice were randomized into two groups receiving either once daily vehicle or 30 mg/kg ESK981 for five days each week. […]
# CXCL10 in VCaP cells = assay: human CXCL10 ELISA of conditioned medium; format: cell-based; conditions: VCaP-conditioned medium, 300 nM, 24 hours
# Procedure: Conditioned medium was collected after 24 hours of drug incubation. ELISA was performed using a human CXCL10 ELISA kit (Cat No. KAC2361, ThermoFisher), or a mouse CXCL10 ELISA kit (Cat No. ab214563, Abcam) according to the manufacturer's instructions.
# [3] = system: GFP-LC3 expressing DU145 cells; assay: GFP-LC3 puncta confocal imaging; format: cell-based, human
# Procedure: For GFP-LC3 confocal imaging, GFP-LC3 expressing DU145 cells were seeded on coverslips overnight and treated with ESK981 at 300 nM for various time points. Coverslips were then fixed with 10% paraformaldehyde. Confocal images were taken using a Nikon A1 confocal microscope.
compound,measurement,setting,value
"CC(C)Cn1c2ccc(Nc3ncccn3)cc2c2c3c(c4c(c21)CCc1nn(C)cc1-4)C(=O)NC3 [ESK981, 13-isobutyl-4-methyl-10-(pyrimidin-2-ylamino)-1,2,4,7,8,13-hexahydro-6H-indazolo[5,4-a]pyrrolo[3,4-c]carbazol-6-one]",growth inhibition (cell viability),[1]; 300 nM,potent growth inhibition
same,cytoplasmic vacuolization morphology,[1]; among the 167 compounds tested,uniquely triggered a cytoplasmic vacuolization morphology
same,tumor weights,DU145 tumors,significant decreases in tumor weights
same,tumor growth,"DU145 tumors; oral gavage 5 days per week, SCID mice",Significant inhibition of tumor growth
same,efficacy in enzalutamide-resistant cell lines,[2],remained efficacious
same,rank in inducing CXCL10 levels among compound libraries,CXCL10 in VCaP cells,ranked first in inducing CXCL10 levels in the tyrosine kinase inhibitor library and second in the autophagy-linked compound library
same,time to vacuole formation,[3],only observed after four hours of treatment
same,time to LC3 puncta formation,[3]; 300 nM,≤ 1 h

# Reference: US20230364084A1, “METHODS FOR PREVENTING OR TREATING CONDITIONS RELATED TO PIKFYVE ACTIVITY” (The Regents of the University of Michigan, priority 2020, published 2023)
